Results taken from PubChem BioAssay AID1259407 (Chemical Carcinogenesis Research Information System (CCRIS), 2018).
The source made the active and inactive calls. No rule for the calls is given here.

Tested on: CCRIS mutagenicity, Ames/micronucleus/aberration tests
Experiment: CCRIS mutagenicity studies

C#CCO
mutagenic call (End Point: In vivo micronucleus, Test System: Normochromatic erythrocytes, Species: Mouse, Strain/Sex: B6C3F1/Male): inactive; negative | mutagenic call (End Point: In vivo micronucleus, Test System: Normochromatic erythrocytes, Species: Mouse, Strain/Sex: B6C3F1/female): inactive; negative. in females, statistically significant trend test but no individual gro | mutagenic call (Test System: AMES SALMONELLA TYPHIMURIUM, Strain/Indicator: TA97, Metabolic Activation: NONE): inactive; negative | mutagenic call (Test System: AMES SALMONELLA TYPHIMURIUM, Strain/Indicator: TA97, Metabolic Activation: RAT, LIVER, S-9, AROCLOR 1254): inactive; negative | mutagenic call (Test System: AMES SALMONELLA TYPHIMURIUM, Strain/Indicator: TA98, Metabolic Activation: NONE): inactive; negative | mutagenic call (Test System: AMES SALMONELLA TYPHIMURIUM, Strain/Indicator: TA98, Metabolic Activation: RAT, LIVER, S-9, AROCLOR 1254): inactive; negative | mutagenic call (Test System: AMES SALMONELLA TYPHIMURIUM, Strain/Indicator: TA100, Metabolic Activation: NONE): inactive; negative | mutagenic call (Test System: AMES SALMONELLA TYPHIMURIUM, Strain/Indicator: TA100, Metabolic Activation: RAT, LIVER, S-9, AROCLOR 1254): inactive; negative | mutagenic call (Test System: AMES SALMONELLA TYPHIMURIUM, Strain/Indicator: TA102, Metabolic Activation: NONE): inactive; negative | mutagenic call (Test System: AMES SALMONELLA TYPHIMURIUM, Strain/Indicator: TA102, Metabolic Activation: RAT, LIVER, S-9, AROCLOR 1254): inactive; negative | mutagenic call (Test System: Ames Salmonella typhimurium, Strain/Indicator: TA98, Metabolic Activation: Hamster, Liver, S9, Aroclor 1254 (30%), Method: Preincubation): inactive; negative. authors judged results as equivocal. | mutagenic call (Test System: Ames Salmonella typhimurium, Strain/Indicator: TA98, Metabolic Activation: Rat, Liver, S9, Aroclor 1254 (30%), Method: Preincubation): inactive; negative. precipitate at highest dose. | mutagenic call (Test System: Ames Salmonella typhimurium, Strain/Indicator: TA100, Metabolic Activation: Hamster, Liver, S9, Aroclor 1254 (30%), Method: Preincubation): inactive; negative | mutagenic call (Test System: Ames Salmonella typhimurium, Strain/Indicator: TA100, Metabolic Activation: Rat, Liver, S9, Aroclor 1254 (30%), Method: Preincubation): inactive; negative | mutagenic call (Test System: Ames Salmonella typhimurium, Strain/Indicator: TA1535, Metabolic Activation: None, Method: Preincubation): inactive; negative

O=C1C(c2[nH]c3ccc(S(=O)(=O)O)cc3c2O)=Nc2ccc(S(=O)(=O)O)cc21
mutagenic call (Test System: AMES SALMONELLA TYPHIMURIUM, Strain/Indicator: TA98, Metabolic Activation: NONE, Method: PREINCUBATION): inactive; negative | mutagenic call (Test System: AMES SALMONELLA TYPHIMURIUM, Strain/Indicator: TA98, Metabolic Activation: S-9, Method: PREINCUBATION): inactive; negative | mutagenic call (Test System: AMES SALMONELLA TYPHIMURIUM, Strain/Indicator: TA100, Metabolic Activation: NONE, Method: PREINCUBATION): inactive; negative | mutagenic call (Test System: AMES SALMONELLA TYPHIMURIUM, Strain/Indicator: TA100, Metabolic Activation: S-9, Method: PREINCUBATION): inactive; negative | mutagenic call (Test System: Mouse lymphoma, Strain/Indicator: L5178Y (tk+/tk-), Metabolic Activation: None, Method: Suspension/plate): inactive; negative | mutagenic call (Test System: Mouse lymphoma, Strain/Indicator: L5178Y (tk+/tk-), Metabolic Activation: Rat, liver, S-9, Aroclor 1254, Method: Suspension/plate): active; positive
